Measured values reported in patent US20100222384A1 (priority 2009, published 2010).

Assays:
[1] = tested on: Junin virus Candid #1 strain; assay type: cell-based; conditions: read-out: EC50, Junin virus inhibition
[2] = tested on: Pichinde virus CoAn 3739 strain; assay type: cell-based

SMILES	EC50 [1] [µM]	PICV in vitro inhibition [2]
[N-]=[N+]=Nc1ccc(NCCCCCCN2C[C@H](O)[C@@H](O)[C@H](O)[C@H]2CO)c([N+](=O)[O-])c1 [NAP-DNJ, N-(N-{4′-azido-2′-nitrophenyl}-6-aminohexyl)deoxynojirimycin]	10	
CCCCN1C[C@H](O)[C@@H](O)[C@H](O)[C@H]1CO [NB-DNJ, N-Butyl deoxynojirimycin]	350	over 50%
CCCOCCCCCCN1C[C@H](O)[C@@H](O)[C@H](O)[C@H]1CO [N7-O-DNJ, N-(7-Oxadecyl)deoxynojirimycin]		70%
CCCCCCCCCN1C[C@H](O)[C@@H](O)[C@H](O)[C@H]1CO [NN-DNJ, N-Nonyl deoxynojirimycin]	60	
COCCCCCCCCCN1C[C@H](O)[C@@H](O)[C@H](O)[C@H]1CO [N9-DNJ, N-(9-Methoxynonyl)deoxynojirimycin]		over 99%
